The record followed here is PubChem BioAssay (NCI).

Among the test systems are 786-0 renal; A498 renal; BT-549 breast; CCRF-CEM leukemia; HCC-2998 colon; HCT-116 colon; NCI-H460 lung; OVCAR-3 ovarian; SF-295 CNS; TK-10 renal.
Holding throughout (experiment): growth of human tumour cells (NCI), 48 h

Each structure is given as a SMILES string.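 Grown in 96-well plates, cells were treated for 48 hours with each compound at five concentrations. Insufficient inhibition: endpoint recorded as highest concentration tested. TGI denotes the concentration required for complete inhibition of growth.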

As to `O=C1C=CC=C/C1=C1\N=C(c2ccccc2OCC(=O)c2ccccc2)SS1`, the TGI in the experiment with 786-0 renal, in the experiment with A498 renal, in the experiment with BT-549 breast, in the experiment with CCRF-CEM leukemia, with HCC-2998 colon and in the experiment on HCT-116 colon was more than 100 µM throughout. Besides, the TGI in the experiment with NCI-H460 lung, in the experiment with OVCAR-3 ovarian, in the experiment with SF-295 CNS and in the experiment with TK-10 renal was more than 100 µM throughout.

Consider `CSc1nc(NC(C)C)c2c(n1)Sc1nc3ccccc3n1N=C2`, for which the TGI with 786-0 renal was 16.7 µM; in the experiment with A498 renal, 12.6 µM; with BT-549 breast, more than 100 µM; in the experiment with CCRF-CEM leukemia it was more than 100 µM; with HCC-2998 colon it was 25.3 µM; in the experiment on HCT-116 colon, 21.5 µM. The TGI was found to be 79.5 µM with NCI-H460 lung, 25.1 µM in the experiment on OVCAR-3 ovarian, 24.1 µM with SF-295 CNS and 36.8 µM in the experiment with TK-10 renal.

As for `CN1C(=O)N(C)C(O)C(Cl)(Br)C1=O` (stereo not given), the TGI in the experiment on 786-0 renal, in the experiment on A498 renal, in the experiment with BT-549 breast, in the experiment on CCRF-CEM leukemia, in the experiment with HCC-2998 colon and in the experiment on HCT-116 colon was more than 100 µM in each case. The TGI in the experiment on NCI-H460 lung, in the experiment on OVCAR-3 ovarian, with SF-295 CNS and in the experiment with TK-10 renal was more than 100 µM each time.

With `COC(=O)C1C(C(=O)OC)C2(OC(c3ccc(Cl)cc3)=CC2=O)C12OC(c1ccc(Cl)cc1)=CC2=O` (stereo not given), the TGI turned out to be 41 µM in the experiment on 786-0 renal; 76.1 µM in the experiment with A498 renal; 42.5 µM in the experiment with BT-549 breast; 8.23 µM in the experiment on CCRF-CEM leukemia; 36.8 µM with HCC-2998 colon; 30.4 µM in the experiment with HCT-116 colon. The TGI worked out at 41.5 µM in the experiment with NCI-H460 lung, 42 µM with OVCAR-3 ovarian, 64.3 µM in the experiment with SF-295 CNS and 48.5 µM in the experiment on TK-10 renal.

For `Nc1nc(Cl)cc(NCC2(O)CC2)n1`, the TGI in the experiment on 786-0 renal, in the experiment with A498 renal, with BT-549 breast, in the experiment on CCRF-CEM leukemia, in the experiment with HCC-2998 colon and with HCT-116 colon was more than 100 µM in each case. Further, the TGI in the experiment on NCI-H460 lung, with OVCAR-3 ovarian, in the experiment with SF-295 CNS and in the experiment on TK-10 renal was more than 100 µM each time.

Consider `CCCCSc1nsc(N(C(=O)c2ccccc2)C(=O)c2ccccc2)n1`, for which the TGI with 786-0 renal was more than 100 µM; with A498 renal, 88.8 µM; in the experiment on BT-549 breast it was 92.1 µM; in the experiment on CCRF-CEM leukemia, more than 100 µM; with HCC-2998 colon, 74.4 µM; in the experiment on HCT-116 colon, 92.6 µM. Also, the TGI is 76.9 µM in the experiment on NCI-H460 lung, 61.1 µM with OVCAR-3 ovarian, more than 100 µM in the experiment on SF-295 CNS and more than 100 µM in the experiment on TK-10 renal.

With `CC1C(NNc2ccccc2)Oc2cc3c(cc2C1c1ccccc1O)OCO3` (stereo not given), the TGI was 44.3 µM in the experiment on 786-0 renal; 29.2 µM in the experiment on A498 renal; 27.4 µM in the experiment with BT-549 breast; 13 µM in the experiment with CCRF-CEM leukemia; 17 µM in the experiment with HCC-2998 colon; 18.7 µM with HCT-116 colon. For the same molecule, the TGI is 18.5 µM with NCI-H460 lung, 24.1 µM with OVCAR-3 ovarian, 3.49 µM with SF-295 CNS and 18.3 µM with TK-10 renal.

Consider `CC1=NN(c2nc(N)nc(-c3sccc3N)n2)C(C)(C)C1`, for which the TGI with 786-0 renal, in the experiment on A498 renal, in the experiment on BT-549 breast, in the experiment on CCRF-CEM leukemia, with HCC-2998 colon and in the experiment with HCT-116 colon was more than 100 µM each time. The TGI in the experiment with NCI-H460 lung, with OVCAR-3 ovarian, in the experiment on SF-295 CNS and with TK-10 renal was more than 100 µM throughout.
